According to PubChem BioAssay AID2060905 (Molecular Pharmacology Branch, DTP, NCI, 2025):
pIC50: −log10 of the molar value.

Test system: 282377-053-R-J1-PDC complex spheroid viability
Test: Anticancer human tumor 282377-053-R-J1-PDC patient-derived colon adenocarcinoma cell line growth inhibition [RAS]
Details: for pIC50: curve of first compound; for viability, T/C: stronger effect = lower value
From the text: RAS pathway inhibitors in Combinations in Complex Spheroids
A high-throughput screen of multi-cell type tumor spheroids was designed to identify active combinations of RAS pathway inhibitors and targeted small molecules. Complex spheroids include a stromal component modeled by human endothelial cells (HUVEC) and fibroblasts modeled by human mesenchymal stem cells (MSCs). The concentration ranges selected for each drug and investigational agent were based upon clinically achievable concentrations if the clinical Cmax of the agent was known.
Compounds. The drugs and investigational agents: abemaciclib (NSC768073), cobimetinib (NSC768068), divarasib (GDC6063, NSC841802), docetaxel (NSC628503), GDC-1971 (RLY-1971, NSC841576), gemcitabine (NSC613327), inavolisib (NSC800729), ipatasertib (NSC767898), KB-0742 (NSC834161), MRTX-1133 (NSC836407), osimertinib (NSC779217), RMC-4630 (NSC839698), RMC-6236 (NSC851965), RMC-6291 (NSC852671), Ro-3306 (NSC812927), sapanisertib (NSC764658), SN-38 (NSC673596), staurosporine (NSC755774), SY5609 (NSC837396), and tovorafenib (DAY101, NSC766906), were obtained from the National Cancer Institute (NCI) Developmental Therapeutics Program Chemical Repository. The FDA-approved anticancer drug set is available from the NCI Developmental Therapeutics Program. […] The stock solutions were prepared in dimethyl sulfoxide (DMSO, Sigma-Aldrich, St. Louis, MO, cat. D2650) at 800-fold the tested concentration and stored at -70 degrees C prior to their use. All drugs and investigational agents were tested over a range starting from a high concentration at or near the clinical Cmax and decreasing in half-log increments. If the clinical Cmax for an agent had not been determined, the highest concentration tested was 10 microM.
Cell Culture. All cells were maintained in an incubator at 37 degrees C and 5% CO2 with 95% humidity. The PDC lines were cultured according to standard operating procedures established by the NCI PDMR. All PDCs were thawed and cultured in Matrigel-coated flasks prepared with a working solution of 1X Ham's F-12 nutrient mix, without supplementation (Invitrogen, Waltham, MA, cat. 11765054), 100 U/mL penicillin-streptomycin (Invitrogen, cat. 15140122), and 2.5% Matrigel (Corning Inc., Corning, NY, cat. 354248) for the first three passages. The 362531-283-R-J2-PDC and 782815-120-R-J1-PDC lines were cultured in 6C/Colon 1B media, which includes advanced DMEM/F-12 (Thermo Fisher Scientific, cat. 12634028), 10 mM HEPES (Thermo Fisher Scientific, cat. 15630080), 1X GlutaMAX supplement (Thermo Fisher Scientific, cat. 35050061), 0.1 mg/mL primocin (InvivoGen, San Diego, CA, cat. ant-pm-2), 10% defined fetal bovine serum, heat inactivated (HyClone Laboratories Inc., Logan, UT, cat. SH30070.03HI), 50% L-WRN conditioned media (ATCC, cat. CRL-3276), 1.25 mM N-Acetyl-L-cysteine (Sigma-Aldrich, cat. A9165), 10 mM nicotinamide (Sigma-Aldrich, cat. N0636), 1X B-27 supplement (Thermo Fisher Scientific, cat. 17504044), 1X N-2 supplement (Thermo Fisher Scientific, cat. 17502048), 50 ng/mL human EGF (Thermo Fisher Scientific, cat. PHG0311), and 10 microM Y-27632 dihydrochloride (Tocris Bioscience, cat. 1254). The K12877-001-R-J1-PDC line was cultured in 6I media, which includes all 6C/Colon 1B media plus 10 ng/mL human FGF-10 (PeproTech, cat. 100-26), 1 ng/mL human FGF-2 (PeproTech, cat. 100-18B), 1 µM prostaglandin E2 (Tocris Bioscience, cat. 2296), […] hydrocortisone (Sigma-Aldrich, cat. H4001), and […] bovine insulin (Sigma-Aldrich, cat. I6634). The K86415-001-R-J1-PDC line was cultured in 6D media, which includes all 6C/Colon 1B media components minus the L-WRN conditioned media. The 485176-168-R4-J1-PDC was cultured in PANC media, which includes all 6C/Colon 1B media plus 100 ng/mL human FGF-10 (PeproTech, cat. 100-26), 500 nM SB-431542 (Selleckchem, cat. S1067), and 10 nM gastrin (Tocris Bioscience, cat. 3006). […]
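Further: spheroids exposed to agents for seven days before readout.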
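Wherever viability, T/C is given: luminescence viability as percent of DMSO vehicle control wells.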

C=CC(=O)N1CCN(c2nc(OCC3CCCN3C)nc3c(F)c(-c4nc(N)cc(C)c4C(F)(F)F)c(Cl)cc23)C(C)C1 (configuration not stated) + C#Cc1c(F)ccc2cc(O)cc(-c3ncc4c(N5CC6CCC(C5)N6)nc(OCC56CCCN5CC(F)C6)nc4c3F)c12
pIC50 (second compound 0.0316 µM): < 6.00 | pIC50 (second compound 0.1 µM): < 6.00 | pIC50 (second compound 0.316 µM): < 6.00 | pIC50 (second compound 1 µM): < 6.00 | pIC50 (second compound 3.16 µM): < 6.00 | pIC50 (second compound 10 µM): < 6.00 | viability, T/C (second compound 0.0316 µM, first compound 0.00316 µM): 111% | viability, T/C (second compound 0.0316 µM, first compound 0.01 µM): 128% | viability, T/C (second compound 0.0316 µM, first compound 0.0316 µM): 132% | viability, T/C (second compound 0.0316 µM, first compound 0.1 µM): 108% | viability, T/C (second compound 0.0316 µM, first compound 0.316 µM): 107% | viability, T/C (second compound 0.0316 µM, first compound 1 µM): 123% | viability, T/C (second compound 0.1 µM, first compound 0.00316 µM): 98.7% | viability, T/C (second compound 0.1 µM, first compound 0.01 µM): 96.9% | viability, T/C (second compound 0.1 µM, first compound 0.0316 µM): 97.2% | viability, T/C (second compound 0.1 µM, first compound 0.1 µM): 96.4% | viability, T/C (second compound 0.1 µM, first compound 0.316 µM): 91.6% | viability, T/C (second compound 0.1 µM, first compound 1 µM): 84.4% | viability, T/C (second compound 0.316 µM, first compound 0.00316 µM): 106% | viability, T/C (second compound 0.316 µM, first compound 0.01 µM): 105% | viability, T/C (second compound 0.316 µM, first compound 0.0316 µM): 91% | viability, T/C (second compound 0.316 µM, first compound 0.1 µM): 99.5% | viability, T/C (second compound 0.316 µM, first compound 0.316 µM): 96.7% | viability, T/C (second compound 0.316 µM, first compound 1 µM): 104% | viability, T/C (second compound 1 µM, first compound 0.00316 µM): 99.6% | viability, T/C (second compound 1 µM, first compound 0.01 µM): 90.9% | viability, T/C (second compound 1 µM, first compound 0.0316 µM): 92.8% | viability, T/C (second compound 1 µM, first compound 0.1 µM): 90.6% | viability, T/C (second compound 1 µM, first compound 0.316 µM): 118% | viability, T/C (second compound 1 µM, first compound 1 µM): 97.5% | viability, T/C (second compound 3.16 µM, first compound 0.00316 µM): 91.1% | viability, T/C (second compound 3.16 µM, first compound 0.01 µM): 109% | viability, T/C (second compound 3.16 µM, first compound 0.0316 µM): 107% | viability, T/C (second compound 3.16 µM, first compound 0.1 µM): 98.6% | viability, T/C (second compound 3.16 µM, first compound 0.316 µM): 108% | viability, T/C (second compound 3.16 µM, first compound 1 µM): 123% | viability, T/C (second compound 10 µM, first compound 0.00316 µM): 100% | viability, T/C (second compound 10 µM, first compound 0.01 µM): 112% | viability, T/C (second compound 10 µM, first compound 0.0316 µM): 116% | viability, T/C (second compound 10 µM, first compound 0.1 µM): 102% | viability, T/C (second compound 10 µM, first compound 0.316 µM): 85.1% | viability, T/C (second compound 10 µM, first compound 1 µM): 107%
